According to patent US20120122906A1, “NOVEL SULFONAMIDE DERIVATIVE AND PHARMACEUTICAL PRODUCT CONTAINING SAME” (KOWA COMPANY, LTD., priority 2009, published 2012):

Assays:
[1] = molecular target: T1, angiotensin II type 1 receptor (Oryctolagus cuniculus, UniProt P34976); experiment: Angiotensin II antagonistic activity in isolated rabbit blood vessels (angiotensin II-induced contraction of thoracic aorta ring); conditions: 0.1 μM compound, angiotensin II (10 nM)-induced contraction, read-out: Angiotensin II activity inhibition rate (%) at 0.1 μM concentration
T1 construct: By using a specimen of isolated rabbit blood vessels; from tissue; host or cells: rabbit thoracic aorta ring (New Zealand White, male)
T1 sequence (P34976 1-359): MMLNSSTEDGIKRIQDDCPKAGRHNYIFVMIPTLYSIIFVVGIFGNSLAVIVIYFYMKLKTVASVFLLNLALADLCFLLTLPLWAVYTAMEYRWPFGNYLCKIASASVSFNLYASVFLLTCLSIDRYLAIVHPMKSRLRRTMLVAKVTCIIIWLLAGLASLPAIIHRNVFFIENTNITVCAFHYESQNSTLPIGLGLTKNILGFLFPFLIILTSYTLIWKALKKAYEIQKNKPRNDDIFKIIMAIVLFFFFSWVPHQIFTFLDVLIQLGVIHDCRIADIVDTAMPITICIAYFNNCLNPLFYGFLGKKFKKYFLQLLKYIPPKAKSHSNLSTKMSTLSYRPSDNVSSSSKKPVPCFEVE
Method: By using a specimen of isolated rabbit blood vessels, antagonistic activity of the compounds of the invention against angiotensin II type 1 receptor was estimated from a dose-response curve of angiotensin II-induced blood vessel contraction. Specifically, the specimen of thoracic aorta ring of a rabbit (New Zealand White: male, 2.4 to 3.0 kg) was suspended in a magnus bath filled with Krebs-Henseleite buffer (composition: 118 mM NaCl, 4.7 mM KCl, 2.55 mM CaCl2, 1.18 mM MgSO4, 1.18 mM KH2PO4, 24.88 mM NaHCO3, and 11.1 mM D-glucose), and angiotensin II (10 nM)-induced contraction was obtained in the presence of the compounds of each example (1 nmol to 10 μmol/L). During the measurement, the inside temperature of the magnus bath was maintained at 37° C. and the bath was continuously ventilated with a sufficient amount of mixed gas (95% O2 and 5% CO2). The angiotensin II-induced contraction was converted into a relative value (%) that is based on the angiotensin II (10 nM)-induced contraction in the absence of the compounds of each example. From the concentration-response curve obtained therefrom, 50% inhibition concentration (IC50 value) was calculated by using SAS Preclinical Package Ver 5.0 (trade name, manufactured by SAS institute Japan Co., Tokyo, Japan), which is a statistical analysis program.

[2] = molecular target: T2, human PPARγ2 (Homo sapiens, UniProt P37231); experiment: PPARγ activation activity, Gal4-PPARγ2 LBD luciferase transfection assay in COST cells; format: cell-based; conditions: Gal4-human PPARγ2 LBD luciferase reporter, 16 hours, rosiglitazone = 100%
T2 construct: the amino acids 182 to 505 of human PPARγ2; expressed in transfected cells
T2 sequence (P37231 182-505): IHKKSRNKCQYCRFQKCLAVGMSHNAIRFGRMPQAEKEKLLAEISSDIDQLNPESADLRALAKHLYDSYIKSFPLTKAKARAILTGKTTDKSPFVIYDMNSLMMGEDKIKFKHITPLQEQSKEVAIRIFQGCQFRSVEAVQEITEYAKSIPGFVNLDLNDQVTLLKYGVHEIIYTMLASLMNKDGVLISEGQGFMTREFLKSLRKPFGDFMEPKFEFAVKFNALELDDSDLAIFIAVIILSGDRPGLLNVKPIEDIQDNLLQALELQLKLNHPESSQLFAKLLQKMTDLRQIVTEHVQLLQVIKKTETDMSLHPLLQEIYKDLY
Method: The agonistic activity of the compounds of the invention on PPARγ was measured based on the transfection assay using COST cells (DS Pharma Biomedical Co., Ltd., Osaka, Japan), which are the cell line derived from the kidney of the African green monkey. COST cells were cultured under 5% CO2 concentration, and DMEM medium containing 10% fetal bovine serum, glutamic acid, and antibiotics was used as a medium.
As an expression vector, a chimera in which DNA binding domain of Gal4, which is a yeast transcription factor, and ligand binding domain of human PPARγ2 are fused, i.e., a fused product between the amino acids 1 to 147 of Gal4 transcription factor and the amino acids 182 to 505 of human PPARγ2, was used. Furthermore, as a reporter vector, a firefly luciferase containing five copies of Gal4 recognition sequence in the promoter region was used. Plasmid transfection to the cells was performed according to a method which uses jetPEI (trade name, manufactured by Funakoshi Co., Ltd., Tokyo, Japan). Furthermore, β-galactosidase expression vector was employed as an internal standard.
After the transfection of the cells, the medium was replaced with a DMEM medium (containing 1% serum) added with the compound, and the cells were further cultured for 16 hours. After that, the luciferase activity and β-galactosidase activity in the cell lysis solution were measured.
For the present test, dimethyl sulfoxide (DMSO) was used for dissolution and dilution of the test compounds, and during the cell treatment, the DMSO concentration in DMEM medium (containing 1% serum) was adjusted to 0.1%. As a positive compound, rosiglitazone (trade name, manufactured by ALEXIS Corporation, Switzerland) was used. The luciferase activity (%) of the test compounds (1 to 30 μmol/L) was calculated when the luciferase activity of rosiglitazone (3 to 10 μmol/L) is 100% and the luciferase activity in the absence of the test compound is 0%. The 50% effective concentration of the test compound (EC50, 50% effect concentration) was calculated by using SAS Preclinical Package Ver 5.0 (trade name, manufactured by SAS institute Japan Co., Tokyo, Japan), which is a statistical analysis program.
Under the same condition, the PPARγ activation activity of telmisartan, i.e., EC50, was 1 to 5 μM. In addition, it was confirmed that compounds of Examples not shown in Table 2 also have PPARγ activation activity at a concentration of 30 μM.

| inhibition at 0.1 µM [1] | EC50 [2] | SMILES |
| --- | --- | --- |
| 100% | – | CCCCc1nc(C)n(-c2ncc(OC)cn2)c(=O)c1Cc1ccc(-c2ccccc2S(=O)(=O)NC(=O)C2CCCC2)cc1 [Example 4, N-{4′-{[4-butyl-1-(5-methoxypyrimidin-2-yl)-2-methyl-6-oxo-1,6-dihydropyrimidin-5-yl]methyl}biphenyl-2-ylsulfonyl}cyclopentanecarboxamide] |
| – | 0.51 µM | CCCCc1nc(C2CCCCC2)n(-c2ncc(OCC)cn2)c(=O)c1Cc1ccc(-c2ccccc2S(=O)(=O)NC(=O)C2CC2)cc1 [Example 19, N-{4′-{[4-butyl-2-cyclohexyl-1-(5-ethoxypyrimidin-2-yl)-6-oxo-1,6-dihydropyrimidin-5-yl]methyl}biphenyl-2-ylsulfonyl}cyclopropanecarboxamide] |
| 92.4% | – | CCCCc1nc(C)n(-c2ncc(OC)cn2)c(=O)c1Cc1ccc(-c2ccccc2S(=O)(=O)NC(=O)C2CCCCC2)cc1 [Example 5, N-{4′-{[4-butyl-1-(5-methoxypyrimidin-2-yl)-2-methyl-6-oxo-1,6-dihydropyrimidin-5-yl]methyl}biphenyl-2-ylsulfonyl}cyclohexanecarboxamide] |
| – | 2.35 µM | CCCCc1nc(C2CC2)n(-c2ncc(OCC)cn2)c(=O)c1Cc1ccc(-c2ccccc2S(=O)(=O)NC(=O)C2CC2)cc1 [Example 16, N-{4′-{[4-butyl-2-cyclopropyl-1-(5-ethoxypyrimidin-2-yl)-6-oxo-1,6-dihydropyrimidin-5-yl]methyl}biphenyl-2-ylsulfonyl}cyclopropanecarboxamide] |
| 77.5% | 3.69 µM | CCCCc1nc(C)n(-c2ncc(OCC)cn2)c(=O)c1Cc1ccc(-c2ccccc2S(=O)(=O)NC(=O)C2CC2)cc1 [Example 8, N-{4′-{[4-butyl-1-(5-ethoxypyrimidin-2-yl)-2-methyl-6-oxo-1,6-dihydropyrimidin-5-yl]methyl}biphenyl-2-ylsulfonyl}cyclopropanecarboxamide] |
| – | 1.36 µM | CCCCc1nc(C(C)C)n(-c2ncc(OCC)cn2)c(=O)c1Cc1ccc(-c2ccccc2S(=O)(=O)NC(=O)C2CC2)cc1 [Example 14, N-{4′-{[4-butyl-1-(5-ethoxypyrimidin-2-yl)-2-isopropyl-6-oxo-1,6-dihydropyrimidin-5-yl)methyl)biphenyl-2-ylsulfonyl]cyclopropanecarboxamide] |
| – | 2.79 µM | CCCCc1nc(CC)n(-c2ncc(OCC)cn2)c(=O)c1Cc1ccc(-c2ccccc2S(=O)(=O)NC(=O)C2CC2)cc1 [Example 13, N-{4′-{[4-butyl-1-(5-ethoxypyrimidin-2-yl)-2-ethyl-6-oxo-1,6-dihydropyrimidin-5-yl]methyl}biphenyl-2-ylsulfonyl}cyclopropanecarboxamide] |
| 91.9% | – | CCCCCC(=O)NS(=O)(=O)c1ccccc1-c1ccc(Cc2c(CCCC)nc(C)n(-c3ncc(OC)cn3)c2=O)cc1 [Example 2, N-{4′-{[4-butyl-1-(5-methoxypyrimidin-2-yl)-2-methyl-6-oxo-1,6-dihydropyrimidin-5-yl]methyl}biphenyl-2-ylsulfonyl}hexanamide] |
| – | 3.37 µM | CCCCc1nc(C)n(-c2ncc(OC(F)F)cn2)c(=O)c1Cc1ccc(-c2ccccc2S(=O)(=O)NC(=O)C2CC2)cc1 [Example 11, N-{4′-{{4-butyl-1-[5-(difluoromethoxy)pyrimidin-2-yl]-2-methyl-6-oxo-1,6-dihydropyrimidin-5-yl}methyl}biphenyl-2-ylsulfonyl}cyclopropanecarboxamide] |
| 89.3% | 2.21 µM | CCCCCC(=O)NS(=O)(=O)c1ccccc1-c1ccc(Cc2c(CCCC)nc(C)n(-c3ncc(OCC)cn3)c2=O)cc1 [Example 7, N-{4′-{[4-butyl-1-(5-ethoxypyrimidin-2-yl)-2-methyl-6-oxo-1,6-dihydropyrimidin-5-yl]methyl}biphenyl-2-ylsulfonyl}hexanamide] |
| 81.9% | – | CCCCc1nc(C)n(-c2ncc(OCC)cn2)c(=O)c1Cc1ccc(-c2ccccc2S(=O)(=O)NC(=O)C2CCCCC2)cc1 [Example 10, N-{4′-{[4-butyl-1-(5-ethoxypyrimidin-2-yl)-2-methyl-6-oxo-1,6-dihydropyrimidin-5-yl]methyl}biphenyl-2-ylsulfonyl}cyclohexanecarboxamide] |
| 71.7% | – | CCCCc1nc(C)n(-c2ncc(OC)cn2)c(=O)c1Cc1ccc(-c2ccccc2S(=O)(=O)NC(=O)CC)cc1 [Example 1, N-{4′-{[4-butyl-1-(5-methoxypyrimidin-2-yl)-2-methyl-6-oxo-1,6-dihydropyrimidin-5-yl]methyl}biphenyl-2-ylsulfonyl}propionamide] |
| – | 1.05 µM | CCCCc1nc(C2CC2)n(-c2ncc(OC)cn2)c(=O)c1Cc1ccc(-c2ccccc2S(=O)(=O)NC(=O)C2CC2)cc1 [Example 15, N-{4′-{[4-butyl-2-cyclopropyl-1-(5-methoxypyrimidin-2-yl)-6-oxo-1,6-dihydropyrimidin-5-yl)methyl)biphenyl-2-ylsulfonyl]cyclopropanecarboxamide] |
| 90% | – | CCCCc1nc(C)n(-c2ncc(OC)cn2)c(=O)c1Cc1ccc(-c2ccccc2S(=O)(=O)NC(=O)C2CC2)cc1 [Example 3, N-{4′-{[4-butyl-1-(5-methoxypyrimidin-2-yl)-2-methyl-6-oxo-1,6-dihydropyrimidin-5-yl]methyl}biphenyl-2-ylsulfonyl}cyclopropanecarboxamide] |
| – | 0.71 µM | CCCCc1nc(C2CCCC2)n(-c2ncc(OCC)cn2)c(=O)c1Cc1ccc(-c2ccccc2S(=O)(=O)NC(=O)C2CC2)cc1 [Example 18, N-{4′-{[4-butyl-2-cyclopentyl-1-(5-ethoxypyrimidin-2-yl)-6-oxo-1,6-dihydropyrimidin-5-yl]methyl}biphenyl-2-ylsulfonyl}cyclopropanecarboxamide] |
| – | 0.96 µM | CCCCc1nc(C2CCC2)n(-c2ncc(OCC)cn2)c(=O)c1Cc1ccc(-c2ccccc2S(=O)(=O)NC(=O)C2CC2)cc1 [Example 17, N-{4′-{[4-butyl-2-cyclobutyl-1-(5-ethoxypyrimidin-2-yl)-6-oxo-1,6-dihydropyrimidin-5-yl]methyl}biphenyl-2-ylsulfonyl}cyclopropanecarboxamide] |

| SMILES | inhibition at 0.1 µM [1] | EC50 [2] |
| --- | --- | --- |
| CCCc1nc2c(C)cc(-c3nc4ccccc4n3C)cc2n1Cc1ccc(-c2ccccc2C(=O)O)cc1 [telmisartan, reference compound] | – | 1 to 5 µM |
